In patent US8492392B2, “Alkoxy tetrahydro-pyridopyrimidine PDE10 inhibitors” (Merck Sharp & Dohme Corp., priority 2009, dated 2013):

These compounds were tested against human PDE10A2 (Homo sapiens (Human), UniProt Q9Y233) (assay: PDE10 fluorescence polarization (IMAP FP) inhibition assay). Settings: FAM-labeled cAMP substrate 50 nM, room temperature, apparent inhibition constant; read-out: PDE10A Ki.
human PDE10A2, sequence (Q9Y233 267-1055): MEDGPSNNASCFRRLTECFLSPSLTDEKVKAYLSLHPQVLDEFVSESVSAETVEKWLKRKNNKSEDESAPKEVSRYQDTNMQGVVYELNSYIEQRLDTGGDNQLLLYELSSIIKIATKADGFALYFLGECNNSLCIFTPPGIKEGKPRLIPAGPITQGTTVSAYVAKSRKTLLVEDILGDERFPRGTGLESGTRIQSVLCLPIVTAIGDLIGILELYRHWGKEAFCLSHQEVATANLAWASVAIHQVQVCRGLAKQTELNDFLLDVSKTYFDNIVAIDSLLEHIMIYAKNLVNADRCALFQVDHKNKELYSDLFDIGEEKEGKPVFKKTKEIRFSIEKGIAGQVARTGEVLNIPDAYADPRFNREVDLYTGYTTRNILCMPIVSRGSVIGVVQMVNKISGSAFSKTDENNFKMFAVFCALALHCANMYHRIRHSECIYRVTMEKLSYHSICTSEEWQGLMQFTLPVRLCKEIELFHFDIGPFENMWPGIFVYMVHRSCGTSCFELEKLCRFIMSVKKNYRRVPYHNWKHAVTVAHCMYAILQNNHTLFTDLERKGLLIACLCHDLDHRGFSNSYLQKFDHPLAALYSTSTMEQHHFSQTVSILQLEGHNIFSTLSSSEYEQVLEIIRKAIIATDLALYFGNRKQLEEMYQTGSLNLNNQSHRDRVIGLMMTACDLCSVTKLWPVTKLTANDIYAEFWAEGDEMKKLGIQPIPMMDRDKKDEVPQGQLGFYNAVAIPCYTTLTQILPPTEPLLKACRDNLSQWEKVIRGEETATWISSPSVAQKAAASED
Assay type: biochemical
Description: The activity of the compounds in accordance with the present invention as PDE10 inhibitors may be readily determined without undue experimentation using a fluorescence polarization (FP) methodology that is well known in the art (Huang, W., et al., J. Biomol Screen, 2002, 7: 215).
In a typical experiment the PDE10 inhibitory activity of the compounds of the present invention was determined in accordance with the following experimental method. PDE10A2 was amplified from human fetal brain cDNA (Clontech, Mountain View, Calif.) using a forward primer corresponding to nucleotides 56-77 of human PDE10A2 (Accession No. AF127480, Genbank Identifier 4894716), containing a Kozak consensus sequence, and a reverse primer corresponding to nucleotides 2406-2413 of human PDE10A2 (Accession No. AF127480, Genbank Identifier 4894716). Amplification with Easy-A polymerase (Stratagene, La Jolla, Calif.) was 95° C. for 2 minutes followed by thirty three cycles of 95° C. for 40 seconds, 55° C. for 30 seconds, and 72° C. for 2 minutes 48 seconds. Final extension was 72° C. for 7 minutes. The PCR product was TA cloned into pcDNA3.2-TOPO (Invitrogen, Carlsbad, Calif.) according to standard protocol. AD293 cells with 70-80% confluency were transiently transfected with human PDE10A2/pcDNA3.2-TOPO using Lipofectamine 2000 according to manufacturer specifications (Invitrogen, Carlsbad, Calif.). Cells were harvested 48 hours post-transfection and lysed by sonication (setting 3, 10×5 sec pulses) in a buffer containing 20 mM HEPES, 1 mM EDTA and protease inhibitor cocktail (Roche). Lysate was collected by centrifugation at 75,000×g for 20 minutes. Supernatant containing the cytoplasmic fraction was used for evaluation of PDE10A2 activity. The fluorescence polarization assay for cyclic nucleotide phosphodiesterases was performed using an IMAP® FP kit supplied by Molecular Devices, Sunnyvale, Calif. (product #R8139). IMAP® technology has been applied previously to phosphodiesterase assays (Huang, W., et al., J. Biomol Screen, 2002, 7: 215). Assays were performed at room temperature in 384-well microtiter plates with an incubation volume of 20.2 μL. Solutions of test compounds were prepared in DMSO and serially diluted with DMSO to yield 8 μL of each of 10 solutions differing by 3-fold in concentration, at 32 serial dilutions per plate. 100% inhibition is determined using a known PDE10 inhibitor, which can be any compound that is present at 5,000 times its Ki value in the assay described as follows, such as papaverine (see Siuciak, et al. Neuropharmacology (2006) 51:386-396; Becker, et al. Behav Brain Res (2008) 186(2):155-60; Threlfell, et al., J Pharmacol Exp Ther (2009) 328(3):785-795), 2-{4-[pyridin-4-yl-1-(2,2,2-trifluoroethyl)-1H-pyrazol-3-yl]phenoxymethyl}quinoline succinic acid or 2-[4-(1-methyl-4-pyridin-4-yl-1H-pyrazol-3-yl)-phenoxymethyl]quinoline succinic acid (see Schmidt, et al. J Pharmacol Exp Ther (2008) 325:681-690; Threlfell, et al., J Pharmacol Exp Ther (2009) 328(3): 785-795). 0% of inhibition is determined by using DMSO (1% final concentrations).
A Labcyte Echo 555 (Labcyte, Sunnyvale, Calif.) is used to dispense 200 nL from each well of the titration plate to the 384 well assay plate. A solution of enzyme (1/1600 dilution from aliquots; sufficient to produce 20% substrate conversion) and a separate solution of FAM-labeled cAMP PDE from Molecular Devices (product #R7506), at a final concentration of 50 nM are made in the assay buffer (10 mM Tris HCl, pH 7.2, 10 mM MgCl2, 0.05% NaN3 0.01% Tween-20, and 1 mM DTT). The enzyme and the substrate are then added to the assay plates in two consecutive additions of 10 μL, and then shaken to mix. The reaction is allowed to proceed at room temperature for 30 minutes. A binding solution is then made from the kit components, comprised of 80% Solution A, 20% Solution B and binding reagent at a volume of 1/600 the total binding solution. […]
`CC(C)Oc1nc(-c2ccc(Cl)nc2)nc2c1CN(C(=O)Nc1cnn(C)c1)CC2` [Compound K-2, 2-(6-chloropyridin-3-yl)-N-(1-methyl-1H-pyrazol-4-yl)-4-(propan-2-yloxy)-7,8-dihydropyrido-[4,3-d]pyrimidine-6(5H)-carboxamide] was tested, and the Ki was 0.9 nM.
In the case of `COCCOc1nc(-c2ccc(C)nc2)nc2c1CN(C(=O)c1cnn3ccccc13)CC2` [Compound R-1, 4-(2-methoxyethoxy)-2-(6-methylpyridin-3-yl)-6-(pyrazolo[1,5-a]pyridin-3-ylcarbonyl)-5,6,7,8-tetrahydropyrido[4,3-d]pyrimidine], the Ki is reported as 12.5 nM.
`Cc1ccc(NC(=O)N2CCc3nc(-c4ccc(Cl)nc4)nc(OC(C)C)c3C2)cn1` [Compound 1-11, 2-(6-chloropyridin-3-yl)-N-(6-methylpyridin-3-yl)-4-(propan-2-yloxy)-7,8-dihydropyrido[4,3-d]pyrimidine-6(5H)-carboxamide] gave a Ki of 0.6 nM.
`COCCOc1nc(-c2ccc(Cl)nc2)nc2c1CN(C(=O)Oc1ccccc1)CC2` [Compound S-1, phenyl 2-(6-chloropyridin-3-yl)-4-(2-methoxyethoxy)-7,8-dihydropyrido[4,3-d]pyrimidine-6(5H)-carboxylate] showed a Ki of 16.8 nM.
In the case of `CC(C)Oc1nc(-c2cccnc2)nc2c1CN(c1nc3ccccc3o1)CC2` [Compound 1-18, 6-(1,3-benzoxazol-2-yl)-4-(propan-2-yloxy)-2-(pyridin-3-yl)-5,6,7,8-tetrahydropyrido[4,3-d]pyrimidine], the Ki is reported as 15.9 nM.
Compound `Cc1ccc(C(=O)N2CCc3nc(-c4ccc(Cl)nc4)nc(OC(C)C)c3C2)cn1` [Compound 1-14, [2-(6-chloropyridin-3-yl)-4-(propan-2-yloxy)-7,8-dihydropyrido[4,3-d]pyrimidin-6(5H)-yl](6-methylpyridin-3-yl)methanone] has a Ki of 9.9 nM.
Work on `CC(C)Oc1nc(-c2ccc(Cl)nc2)nc2c1CN(S(=O)(=O)c1cccnc1)CC2` [Compound 1-17, 2-(6-chloropyridin-3-yl)-4-(propan-2-yloxy)-6-(pyridin-3-ylsulfonyl)-5,6,7,8-tetrahydropyrido[4,3-d]pyrimidine] yielded a Ki of 0.63 nM.
`COCCOc1nc(-c2ccc(Cl)nc2)nc2c1CN(C(=O)c1cnn3ccccc13)CC2` [Compound O-2, [2-(6-chloropyridin-3-yl)-4-(2-methoxyethoxy)-7,8-dihydropyrido[4,3-d]pyrimidin-6(5H)-yl](pyrazolo[1,5-a]pyridin-3-yl)methanone] was tested, and the Ki was 0.93 nM.
With `COC[C@H](C)Oc1nc(-c2ccc(Cl)nc2)nc2c1CN(C(=O)Nc1ccc(C)nc1)CC2` [Compound P-5, 2-(6-chloropyridin-3-yl)-4-{[(2S)-1-methoxypropan-2-yl]oxy}-N-(6-methylpyridin-3-yl)-7,8-dihydropyrido[4,3-d]pyrimidine-6(5H)-carboxamide] the Ki was 0.92 nM.
Compound `COc1ccc2[nH]c(C(=O)N3CCc4nc(-c5cccnc5)nc(OC(C)C)c4C3)cc2n1` [Compound 1-20, (5-methoxy-1H-pyrrolo[3,2-b]pyridin-2-yl)[4-(propan-2-yloxy)-2-(pyridin-3-yl)-7,8-dihydropyrido[4,3-d]pyrimidin-6(5H)-yl]methanone] has a Ki of 0.8 nM.
`COc1cc(NC(=O)N2CCc3nc(-c4ccc(Cl)nc4)nc(O[C@@H]4CCOC4)c3C2)ccn1` [Compound 1-13, 2-(6-chloropyridin-3-yl)-N-(2-methoxypyridin-4-yl)-4-[(3R)-tetrahydrofuran-3-yloxy]-7,8-dihydropyrido[4,3-d]pyrimidine-6(5H)-carboxamide] was tested, and the Ki was 0.84 nM.
`CC(C)Oc1nc(-c2cccnc2)nc2c1CN(C(=O)Nc1ccc3ccn(C)c3c1)CC2` [Compound 1-8, 4-isopropoxy-N-(1-methyl-1H-indol-6-yl)-2-pyridin-3-yl-7,8-dihydropyrido[4,3-d]pyrimidine-6(5H)-carboxamide] showed a Ki of 9.2 nM.
`COC[C@H](C)Oc1nc(-c2ccc(Cl)nc2)nc2c1CN(C(=O)c1ncn3ccccc13)CC2` [Compound T-1, [2-(6-chloropyridin-3-yl)-4-{[(2S)-1-methoxypropan-2-yl]oxy}-7,8-dihydropyrido[4,3-d]pyrimidin-6(5H)-yl](imidazo[1,5-a]pyridin-1-yl)methanone] showed a Ki of 0.43 nM.
`Cc1ccc(NC(=O)N2CCc3nc(N4CCCC4)nc(OC(C)C)c3C2)cn1` [Compound N-5, 4-isopropoxy-N-(6-methylpyridin-3-yl)-2-pyrrolidin-1-yl-7,8-dihydropyrido[4,3-d]pyrimidine-6(5H)-carboxamide] was tested, and the Ki was 31.4 nM.
Compound `CC(C)Oc1nc(-c2ccc(Cl)nc2)nc2c1CN(C(=O)c1cn(C)cn1)CC2` [Compound 1-19, [2-(6-chloropyridin-3-yl)-4-(propan-2-yloxy)-7,8-dihydropyrido[4,3-]pyrimidin-6(5H)-yl](1-methyl-1H-imidazol-4-yl)methanone] has a Ki of 4.55 nM.
In the case of `CCc1cccc(NC(=O)N2CCc3nc(-c4cccnc4)nc(OC4CCN(C)CC4)c3C2)c1` [Compound 1-7, N-(3-ethylphenyl)-4-[(1-methylpiperidin-4-yl)oxy]-2-pyridin-3-yl-7,8-dihydropyrido[4,3-d]pyrimidine-6(5H)-carboxamide], the Ki is reported as 14 nM.
Work on `COCCOc1nc(-c2ccc(Cl)nc2)nc2c1CN(C(=O)c1ncn3ccccc13)CC2` [Compound Q-2, [2-(6-chloropyridin-3-yl)-4-(2-methoxyethoxy)-7,8-dihydropyrido[4,3-d]pyrimidin-6(5H)-yl](imidazo[1,5-a]pyridin-1-yl)methanone] yielded a Ki of 0.99 nM.
